In patent US20250154202A1, “CYCLIC EPITOPE TAGS” (BIONTECH SE, priority 2022, published 2025):
Where “and” joins values, the source holds several entries; their conditions need not be identical. Identical values can stand only once. Bridge positions count the residues as written; N and C are the ends. Square brackets hold non-standard residues; d marks the D form. Peptide text beside a SMILES is read from it.

Experiments:
[1] = Plasma stability, human plasma; details: human plasma, 37° C.; for half-life: plasma
[2] = Plasma stability, mouse plasma; details: for remaining at 1 h, 10 µM / remaining at 3 h, 10 µM / remaining at 6 h, 10 µM: Balb C, Li-heparin plasma; for remaining at 1 h, 10 µM / remaining at 3 h, 10 µM / remaining at 6 h, 10 µM / half-life: mouse; for Conc. (% of T0) / Mean (compound concentration) / Tube 2 (compound concentration) / Tube 1 (compound concentration) / half-life: mouse plasma, 37° C.; for half-life: plasma
NbALFA = test: SPR measurements of NbALFA binding (Biacore T200, multi cycle kinetics, 1:1 binding model); details: for Kd / ka / kd: 25° C., HBS-EP+ buffer, biotinylated NbALFA captured
Procedure: Affinity measurements were performed using a Biacore T200 (GE Healthcare, Biacore T200 control Software 3.2). […] A freshly docked Biotin CAPture chip was rehydrated overnight in the instrument (standby mode). […] The immobilization of the Nanobody was done for 180 s at 10 μL/min on FC2 followed by quenching of unbound streptavidin by 0.1 mM biocytin for 60 s and 30 μL/min on both flow cells. […] After each cycle, the surface was regenerated for 120 s with 10 μL/min using regeneration solution. All measurements were performed at 25° C. using HBS-EP+ buffer (Cytiva Europe, Cat. no BR100669). The control responses from FC1 were subtracted by the sample measurement in FC2 (FC2−FC1) followed by subtraction of the 0 nM blank injection. Resulting binding curves of this multi cycle kinetic experiment were fitted using the Biacore T200 Evaluation Software 3.2 and a 1:1 binding model.

[3] = timepoint 0 h, calibration range 0.1 to 10 μM
[4] = human, human Li-heparin plasma, Conc. (% of T0), timepoint 1 h
[5] = human, human Li-heparin plasma, Conc. (% of T0), timepoint 3 h
[6] = human, Flag (half-life, assay exceeded)
[7] = human, Half-life time, incubation 24 h (triplicates) or 6 h (duplicates)
[8] = Half-life time, incubation 24 h (triplicates) or 6 h (duplicates)
[9] = Flag (half-life, assay exceeded)

| SMILES | Conc. (% of T0) ([1]; timepoint 0 h) | half-life [1, 6] [h] | half-life [1, 7] [h] | remaining at 1 h, 10 µM [2] [%] | remaining at 3 h, 10 µM [2] [%] | remaining at 6 h, 10 µM [2] [%] | Conc. (% of T0) ([2]; timepoint 0 h) | Mean (compound concentration) ([2]; timepoint 0 h) | Tube 2 (compound concentration) ([2]; timepoint 0 h) | Tube 1 (compound concentration) [2, 3] [x] | Mean (compound concentration) ([2]; timepoint 1 h) | Tube 1 (compound concentration) ([2]; timepoint 1 h) [x] | Tube 2 (compound concentration) ([2]; timepoint 1 h) | Mean (compound concentration) ([2]; timepoint 3 h) | Tube 1 (compound concentration) ([2]; timepoint 3 h) [x] | Tube 2 (compound concentration) ([2]; timepoint 3 h) | Mean (compound concentration) ([2]; timepoint 6 h) | Tube 1 (compound concentration) ([2]; timepoint 6 h) [x] | Tube 2 (compound concentration) ([2]; timepoint 6 h) | half-life [2, 8] [h] | also measured |
| --- | --- | --- | --- | --- | --- | --- | --- | --- | --- | --- | --- | --- | --- | --- | --- | --- | --- | --- | --- | --- | --- |
| CC(=O)N1CCC[C@H]1C(=O)N[C@@H](CO)C(=O)N[C@@H](CCCNC(=N)N)C(=O)N[C@@H](CC(C)C)C(=O)N[C@@H](CCC(=O)O)C(=O)N[C@H]1CSSC[C@H](C(=O)N[C@@H](CCCNC(=N)N)C(=O)N[C@@H](CCCNC(=N)N)C(=O)N[C@@H](CC(C)C)C(=O)N[C@H](C(=O)N[C@@H](CCC(=O)O)C(N)=O)[C@@H](C)O)NC(=O)[C@H](CC(C)C)NC(=O)[C@H](CCC(=O)O)NC1=O [SD15807, Ac-Pro-Ser-Arg-Leu-Glu-(cyclo6)Cys-Glu-Leu-(cyclo9)dCys-Arg-Arg-Leu-Thr-Glu-NH2] (Ac-PSRLECEL[dC]RRLTE-NH2; disulfide 6-9) | 100.0 % of T0 | > 6 | 6.07 | 78.7 | 60.9 | 37 | 100.0 % of T0 | 2.172 | 2.194 | 2.149 | 1.710 | 1.726 | 1.693 | 1.322 | 1.321 | 1.323 | 0.804 | 0.803 | 0.804 | 4.32 | Mean (compound concentration) ([1]; timepoint 0 h): 2.217 and 2.958; Tube 2 (compound concentration) ([1]; timepoint 0 h): 2.230 and 3.034; Tube 1 (compound concentration) [1, 3]: 2.203 x and 2.882 x; Mean (compound concentration) ([1]; timepoint 1 h): 2.093 and 2.872; Tube 1 (compound concentration) ([1]; timepoint 1 h): 2.094 x and 2.884 x; Tube 2 (compound concentration) ([1]; timepoint 1 h): 2.092 and 2.860; Conc. (% of T0) ([1]; timepoint 1 h, 60 min): 97.1 % of T0; Mean (compound concentration) ([1]; timepoint 3 h): 1.662 and 2.596; Tube 1 (compound concentration) ([1]; timepoint 3 h): 1.583 x and 2.532 x; Tube 2 (compound concentration) ([1]; timepoint 3 h): 1.740 and 2.660; Conc. (% of T0) ([1]; timepoint 3 h, 180 min): 87.8 % of T0; Conc. (% of T0) ([1]; timepoint 6 h, 360 min): 51.2 % of T0 and 77.7 % of T0; remaining at 1 h, 10 µM [1, 4]: 94.4%; remaining at 3 h, 10 µM [1, 5]: 75% |
| CC(=O)N1CCC[C@H]1C(=O)N[C@@H](CO)C(=O)N[C@@H](CCCNC(=N)N)C(=O)N[C@@H](CC(C)C)C(=O)N[C@@H](CCC(=O)O)C(=O)N[C@H]1CCC(=O)NCCCC[C@H](C(=O)N[C@@H](CCCNC(=N)N)C(=O)N[C@@H](CC(C)C)C(=O)N[C@H](C(=O)N[C@@H](CCC(=O)O)C(N)=O)[C@@H](C)O)NC(=O)[C@H](CCCNC(=N)N)NC(=O)[C@H](CC(C)C)NC(=O)[C@H](CCC(=O)O)NC1=O [SD15808, Ac-Pro-Ser-Arg-Leu-Glu-(cyclo6)Glu-Glu-Leu-Arg-(cyclo10)dLys-Arg-Leu-Thr-Glu-NH2] (Ac-PSRLEEELR[dK]RLTE-NH2; lactam 6-10) | – | > 6 | 16.1 | 86.9 | 73.7 | 61.1 | 100.0 % of T0 | 3.198 | 3.173 | 3.223 | 2.780 | 2.668 | 2.892 | 2.357 | 2.398 | 2.316 | 1.955 | 2.018 | 1.892 | 8.74 | Kd (NbALFA): 0.038 nM; ka (NbALFA): 1.35e+07 M⁻¹ s⁻¹; kd (NbALFA): 0.000513 s⁻¹; binding with respect to NbALFA (NbALFA; in words): very good binding; half-life [2, 9]: > 6 h |
| CC(=O)N1CCC[C@H]1C(=O)N[C@@H](CO)C(=O)N[C@@H](CCCNC(=N)N)C(=O)N[C@@H](CC(C)C)C(=O)N[C@H]1CCC(=O)NCCCC[C@@H](C(=O)N[C@@H](CCCNC(=N)N)C(=O)N[C@@H](CCCNC(=N)N)C(=O)N[C@@H](CC(C)C)C(=O)N[C@H](C(=O)N[C@@H](CCC(=O)O)C(N)=O)[C@@H](C)O)NC(=O)[C@H](CC(C)C)NC(=O)[C@H](CCC(=O)O)NC(=O)[C@H](CCC(=O)O)NC1=O [SD15806, Ac-Pro-Ser-Arg-Leu-(cyclo5)Glu-Glu-Glu-Leu-(cyclo9)Lys-Arg-Arg-Leu-Thr-Glu-NH2] (Ac-PSRLEEELKRRLTE-NH2; lactam 5-9) | 100.0 % of T0 | > 6 | 20.8 | 88.4 | 83.1 | 73.7 | 100.0 % of T0 | 3.073 | 3.145 | 3.000 | 2.717 | 2.773 | 2.661 | 2.553 | 2.604 | 2.501 | 2.265 | 2.258 | 2.272 | 14.9 | Kd (NbALFA): 1.43 nM; ka (NbALFA): 3.44e+09 M⁻¹ s⁻¹; kd (NbALFA): 4.94 s⁻¹; Mean (compound concentration) ([1]; timepoint 0 h): 3.040; Tube 2 (compound concentration) ([1]; timepoint 0 h): 2.965; Tube 1 (compound concentration) [1, 3]: 3.114 x; Mean (compound concentration) ([1]; timepoint 1 h): 2.859; Tube 1 (compound concentration) ([1]; timepoint 1 h): 2.843 x; Tube 2 (compound concentration) ([1]; timepoint 1 h): 2.874; Mean (compound concentration) ([1]; timepoint 3 h): 2.629; Tube 1 (compound concentration) ([1]; timepoint 3 h): 2.772 x; Tube 2 (compound concentration) ([1]; timepoint 3 h): 2.486; Mean (compound concentration) ([1]; timepoint 6 h): 2.476; Tube 1 (compound concentration) ([1]; timepoint 6 h): 2.534 x; Tube 2 (compound concentration) ([1]; timepoint 6 h): 2.417; remaining at 1 h, 10 µM [1, 4]: 94%; remaining at 3 h, 10 µM [1, 5]: 86.5%; remaining at 6 h, 10 µM ([1]; human, human Li-heparin plasma, Conc. (% of T0), timepoint 6 h): 81.4%; half-life [2, 9]: > 6 h |
